In patent publication US20250064789A1, “KETOAMIDE DERIVATIVES AND PHARMACEUTICAL USES THEREOF” (priority 2022, published 2025):

Legend:
in vivo = details: male, Sprague-Dawley, rat, po, 10 mg/kg
[1] = biological target: recombinant SARS-CoV-2 M^pro (Severe acute respiratory syndrome coronavirus 2 (2019-nCoV) (SARS-CoV-2), UniProt P0DTD1); test: Inhibition of SARS-CoV-2 M^pro enzyme activity (fluorescent substrate assay); type: biochemical; details: inhibition of SARS-CoV-2 M^pro enzyme activity; values in nM; read-out: IC50
[2] = Cytotoxic assay against Vero E6 cells (MTT, 72 h); type: cell-based; details: African green monkey
Experimental: The cytotoxicity assessment of compounds was performed against Vero E6 cells. The specific experimental procedures: Vero E6 cells were seeded into a 96-well plate at a cell density of 2×10^4 cells/well, with 100 μL/well, and then incubated overnight at 37° C. in a 5% CO2 incubator. The next day, 100 μL of drug-containing medium was added to each well. The compound was diluted in a 2-fold serial dilution with a top concentration of […], for a total of 6 gradients. Three repeated wells were set for each concentration, and negative controls and blank controls without drugs were included for each experiment. […] All experimental data were analyzed using GraphPad Prism software.

Compound `O=C(CCC1CCC(F)(F)CC1)NCC(=O)N[C@H](Cc1ccccc1)C(=O)C(=O)NCc1ccccn1` [Compound 153] has an AUC(0-inf) (in vivo) of 26000 ± 265 ng·h/mL, an AUC(0-t) (in vivo) of 23500 ± 676 ng·h/mL and a Cmax (in vivo) of 1980 ± 97.7 ng/mL. It also gave an MRT inf (in vivo) of 7.08 ± 0.25 h, a Tmax (in vivo) of 100 ± 34.8 min and a half-life (in vivo) of 428 ± 27.6 min. It also gave an IC50 [1] of 12 ± 0.6 nM.
Compound `CC(C)(NC(=O)C1CCC(F)(F)CC1)C(=O)N[C@H](Cc1ccccc1)C(=O)C(=O)NCc1ccccn1` [Compound 172] has a CC50 at 72 h [2] of 341 µM and an IC50 [1] of 14.9 ± 0.7 nM.
In the case of `CC(C)(NC(=O)[C@@H]1C[C@@H]2[C@H](C1)C2(F)F)C(=O)N[C@H](Cc1ccccc1)C(=O)C(=O)NCc1ccccn1` [Compound 174], the CC50 at 72 h [2] is reported as over 500 µM and the IC50 [1] is reported as 13.2 ± 1 nM.
`CC(C)(NC(=O)c1cc(OC(F)(F)F)ccc1F)C(=O)N[C@H](Cc1ccccc1)C(=O)C(=O)NCc1ccccn1` [Compound 177] gave a CC50 at 72 h [2] of 157 µM and an IC50 [1] of 10.5 ± 0.2 nM.
In the case of `O=C(NCc1ccccn1)C(=O)[C@@H](Cc1ccccc1)NC(=O)[C@H]1COCCN1C(=O)C1CCC(F)(F)CC1` [Compound 288], the AUC(0-inf) (in vivo) is reported as 3500 ± 1250 ng·h/mL, the AUC(0-t) (in vivo) is reported as 3490 ± 1250 ng·h/mL and the Cmax (in vivo) is reported as 1140 ± 207 ng/mL. For the same compound, the MRT inf (in vivo) was 3.59 ± 0.11 h, the Tmax (in vivo) was 45 ± 25.8 min and the half-life (in vivo) was 182 ± 21.6 min. The IC50 [1] was 14.6 ± 0.4 nM.
`O=C(NCc1ccccn1)C(=O)[C@@H](Cc1ccccc1)NC(=O)[C@H]1COCCN1C(=O)[C@H](NC(=O)c1cnccn1)C1CCCCC1` [Compound 290] gave an AUC(0-inf) (in vivo) of 3120 ± 894 ng·h/mL, an AUC(0-t) (in vivo) of 3110 ± 894 ng·h/mL and a Cmax (in vivo) of 722 ± 235 ng/mL. For the same compound, the MRT inf (in vivo) was 4.16 ± 0.3 h, the Tmax (in vivo) was 30 min and the half-life (in vivo) was 160 ± 6.6 min. It also gave an IC50 [1] of 11.3 ± 0.2 nM.
In the case of `C[C@@H](NC(=O)C1CCC(F)(F)CC1)C(=O)N[C@H](Cc1ccccc1)C(=O)C(=O)NCc1ccccn1` [Compound 317], the CC50 at 72 h [2] is reported as over 500 µM and the IC50 [1] is reported as 16 ± 0.3 nM.
`CC(C)(C(=O)NCC1CCC(F)(F)CC1)C(=O)N[C@H](Cc1ccccc1)C(=O)C(=O)NCc1ccccn1` [Compound 324, (R)—N^1-((4,4-difluorocyclohexyl)methyl)-N^3-(3,4-dioxo-1-phenyl-4-((pyridin-2-ylmethyl)amino)butan-2-yl)-2,2-dimethylmalonamide] showed a CC50 at 72 h [2] of over 500 µM and an IC50 [1] of 9.6 ± 0.1 nM.
For `O=C(CNC(=O)C1CC12CCC(F)(F)CC2)N[C@H](Cc1ccccc1)C(=O)C(=O)NCc1ccccn1` (stereo partly shown) [Compound 333], the AUC(0-inf) (in vivo) was 22400 ± 10800 ng·h/mL, the AUC(0-t) (in vivo) was 18700 ± 9060 ng·h/mL and the Cmax (in vivo) was 1590 ± 573 ng/mL. For the same compound, the MRT inf (in vivo) was 7.47 ± 0.38 h, the Tmax (in vivo) was 55.2 ± 57 min and the half-life (in vivo) was 584 ± 22.8 min. The IC50 [1] was 13.4 ± 0.2 nM.
Compound `O=C(CN1C(=O)CN(c2cccc(Cl)c2)C1=O)N[C@H](Cc1ccccc1)C(=O)C(=O)NCc1nccs1` [Compound 527] has an IC50 [1] of 44.3 ± 1.1 nM.
For `CC(C)(C(=O)N[C@H](Cc1ccccc1)C(=O)C(=O)NCc1nccs1)n1cc(-c2cccc(F)c2)cn1` [Compound 528], the IC50 [1] was 50.8 ± 1 nM.
For `CC(C)(C(=O)N[C@H](Cc1ccccc1)C(=O)C(=O)NCc1nccs1)n1cc(-c2cccc(OC(F)(F)F)c2)cn1` [Compound 529], the IC50 [1] was 224.5 ± 1.3 nM.
In the case of `O=C(Cn1nc(-c2ccc(F)cc2)cc1C(F)(F)F)N[C@H](Cc1ccccc1)C(=O)C(=O)NCc1nccs1` [Compound 530], the IC50 [1] is reported as 32.5 ± 1.1 nM.
`O=C(NCc1nccs1)C(=O)[C@@H](Cc1ccccc1)NC(=O)n1nc(C(F)(F)F)cc1-c1ccc(F)cc1` [Compound 531] showed an IC50 [1] of 598 ± 2.8 nM.
Compound `O=C(Cn1cc(-c2ccccc2F)nn1)N[C@H](Cc1ccccc1)C(=O)C(=O)NCc1nccs1` [Compound 532, (R)-3-(2-(4-(2-fluorophenyl)-1H-1,2,3-triazol-1-yl)acetamido)-2-oxo-4-phenyl-N-(thiazole-2-ylmethyl)butyramide] has an IC50 [1] of 624.5 ± 2.6 nM.
In the case of `O=C(Cc1noc(C2CCC(F)(F)CC2)n1)N[C@H](Cc1ccccc1)C(=O)C(=O)NCc1nccs1` [Compound 533], the IC50 [1] is reported as 69 ± 6.9 nM.
In the case of `CC[C@@H](NC(=O)C1CCC(F)(F)CC1)C(=O)N[C@H](Cc1ccccc1)C(=O)C(=O)NCc1nccs1` [Compound 535], the IC50 [1] is reported as 35.7 ± 0.17 nM.
`CC(C)[C@@H](NC(=O)C1CCC(F)(F)CC1)C(=O)N[C@H](Cc1ccccc1)C(=O)C(=O)NCc1nccs1` [Compound 536] showed an IC50 [1] of 24.8 ± 0.3 nM.
`CC(C)(NC(=O)C1CCC(F)(F)CC1)C(=O)N[C@H](Cc1ccccc1)C(=O)C(=O)NCc1nccs1` [Compound 537] gave an IC50 [1] of 89.5 ± 1.5 nM.
`O=C(NCc1nccs1)C(=O)[C@@H](Cc1ccccc1)NC(=O)C1(NC(=O)C2CCC(F)(F)CC2)CC1` [Compound 538] showed an IC50 [1] of 33.5 ± 1.5 nM.
Work on `O=C(NCc1nccs1)C(=O)[C@@H](Cc1ccccc1)NC(=O)C1(NC(=O)C2CCC(F)(F)CC2)CCC1` [Compound 539] yielded an IC50 [1] of 21.8 ± 0.5 nM.
Compound `O=C(NCc1nccs1)C(=O)[C@@H](Cc1ccccc1)NC(=O)C1(NC(=O)C2CCC(F)(F)CC2)CC(F)(F)C1` [Compound 540] has an IC50 [1] of 26.9 ± 0.1 nM.
Compound `O=C(NCc1nccs1)C(=O)[C@@H](Cc1ccccc1)NC(=O)C1(NC(=O)C2CCC(F)(F)CC2)CCCC1` [Compound 541] has an IC50 [1] of 51.8 ± 1.4 nM.
Work on `O=C(NCc1nccs1)C(=O)[C@@H](Cc1ccccc1)NC(=O)C1(NC(=O)C2CCC(F)(F)CC2)CCCCC1` [Compound 542] yielded an IC50 [1] of 52.4 ± 7 nM.
For `O=C(NCc1nccs1)C(=O)[C@@H](Cc1ccccc1)NC(=O)[C@H](NC(=O)C1CCC(F)(F)CC1)C1CC1` [Compound 543], the IC50 [1] was 107 ± 1.3 nM.
Compound `COC[C@@H](NC(=O)C1CCCC(F)(F)C1)C(=O)N[C@H](Cc1ccccc1)C(=O)C(=O)NCc1cscn1` (stereo partly shown) [Compound 544] has an IC50 [1] of 22.5 ± 0.9 nM.
